Measurements: PubChem BioAssay (NCI)
Values joined by “and” are separate entries in the source; they are usually repeats but may differ in a detail not shown here. Equal entries are not always repeated.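 Assay format: 96-well plates, 48-hour exposure. GI50 marks 50% less growth. TGI marks complete inhibition of growth.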

Columns and labels:
Assay in all cases: NCI tumour cell line growth inhibition, 48 h
MDA-N = system: MDA-N
A549 NSCLC = system: A549 NSCLC
CCRF-CEM leukemia = system: CCRF-CEM leukemia
SW-620 colon = system: SW-620 colon
PC-3 prostate = system: PC-3 prostate
NCI/ADR-RES ovarian = system: NCI/ADR-RES ovarian
MDA-MB-231 breast = system: MDA-MB-231 breast
BT-549 breast = system: BT-549 breast
SF-295 CNS = system: SF-295 CNS
SF-268 CNS = system: SF-268 CNS
OVCAR-4 ovarian = system: OVCAR-4 ovarian
HOP-92 NSCLC = system: HOP-92 NSCLC
SN12C renal = system: SN12C renal
M14 melanoma = system: M14 melanoma
OVCAR-3 ovarian = system: OVCAR-3 ovarian
SNB-75 CNS = system: SNB-75 CNS
NCI-H522 lung = system: NCI-H522 lung
TK-10 renal = system: TK-10 renal
NCI-H226 lung = system: NCI-H226 lung
K-562 leukemia = system: K-562 leukemia
HCT-15 colon = system: HCT-15 colon
UO-31 renal = system: UO-31 renal
KM12 colon = system: KM12 colon
SNB-19 CNS = system: SNB-19 CNS
COLO 205 colon = system: COLO 205 colon
SK-OV-3 ovarian = system: SK-OV-3 ovarian
RPMI-8226 leukemia = system: RPMI-8226 leukemia
UACC-257 melanoma = system: UACC-257 melanoma
OVCAR-5 ovarian = system: OVCAR-5 ovarian
NCI-H460 lung = system: NCI-H460 lung
CAKI-1 renal = system: CAKI-1 renal
MDA-MB-435 = system: MDA-MB-435
SK-MEL-28 melanoma = system: SK-MEL-28 melanoma
SK-MEL-2 melanoma = system: SK-MEL-2 melanoma
ACHN renal = system: ACHN renal
HT29 colon = system: HT29 colon
HCT-116 colon = system: HCT-116 colon
EKVX NSCLC = system: EKVX NSCLC
HS 578T breast = system: HS 578T breast
DU-145 prostate = system: DU-145 prostate
MCF7 breast = system: MCF7 breast
IGROV1 ovarian = system: IGROV1 ovarian
LOX IMVI melanoma = system: LOX IMVI melanoma
RXF 393 renal = system: RXF 393 renal
HL-60(TB) leukemia = system: HL-60(TB) leukemia
MALME-3M melanoma = system: MALME-3M melanoma
NCI-H23 lung = system: NCI-H23 lung
HOP-62 NSCLC = system: HOP-62 NSCLC
MOLT-4 leukemia = system: MOLT-4 leukemia
U251 CNS = system: U251 CNS
SK-MEL-5 melanoma = system: SK-MEL-5 melanoma
HCC-2998 colon = system: HCC-2998 colon
UACC-62 melanoma = system: UACC-62 melanoma
OVCAR-8 ovarian = system: OVCAR-8 ovarian
786-0 renal = system: 786-0 renal

CCc1c2c(nc3ccc(O)cc13)-c1cc3c(c(=O)n1C2)COC(=O)[C@]3(O)CC
GI50 (MDA-N): 1.92 µM | TGI (MDA-N): > 100 µM | GI50 (A549 NSCLC): < 0.001 µM | TGI (A549 NSCLC): 8.34 µM | TGI (CCRF-CEM leukemia): > 100 µM | TGI (SW-620 colon): > 100 µM | GI50 (PC-3 prostate): 0.0857 µM | TGI (PC-3 prostate): > 100 µM | TGI (NCI/ADR-RES ovarian): 6.45 µM | GI50 (MDA-MB-231 breast): 0.524 µM | TGI (MDA-MB-231 breast): > 100 µM | GI50 (BT-549 breast): 0.0103 µM | TGI (BT-549 breast): 0.293 µM | TGI (SF-295 CNS): 0.0503 µM | TGI (SF-268 CNS): 3.68 µM | GI50 (OVCAR-4 ovarian): 0.279 µM | GI50 (HOP-92 NSCLC): < 0.001 µM | TGI (SN12C renal): > 100 µM | TGI (M14 melanoma): 0.488 µM and 0.156 µM | GI50 (OVCAR-3 ovarian): 0.0649 µM | TGI (OVCAR-3 ovarian): 2.55 µM and 1.67 µM | TGI (SNB-75 CNS): 0.351 µM | TGI (NCI-H522 lung): 0.885 µM and 0.317 µM | GI50 (TK-10 renal): 0.606 µM | TGI (NCI-H226 lung): 0.0109 µM and 0.0892 µM | TGI (K-562 leukemia): > 100 µM | GI50 (HCT-15 colon): 0.206 µM | TGI (HCT-15 colon): > 100 µM | TGI (UO-31 renal): 0.0152 µM and 0.115 µM | GI50 (KM12 colon): 0.0784 µM | TGI (KM12 colon): 2.64 µM | TGI (SNB-19 CNS): > 12.7 µM | GI50 (COLO 205 colon): 0.0711 µM | TGI (COLO 205 colon): 12.2 µM | GI50 (SK-OV-3 ovarian): < 0.001 µM | TGI (SK-OV-3 ovarian): 0.342 µM and 0.792 µM | GI50 (RPMI-8226 leukemia): < 0.001 µM | GI50 (UACC-257 melanoma): 0.0838 µM | GI50 (OVCAR-5 ovarian): 0.246 µM | TGI (OVCAR-5 ovarian): 4.56 µM | TGI (NCI-H460 lung): 0.147 µM and 0.536 µM | TGI (CAKI-1 renal): 0.0286 µM and 0.0985 µM | TGI (MDA-MB-435): 0.292 µM and 1.57 µM | GI50 (SK-MEL-28 melanoma): 0.246 µM | TGI (SK-MEL-28 melanoma): > 19.7 µM | TGI (SK-MEL-2 melanoma): 0.282 µM | TGI (ACHN renal): 0.0322 µM and 0.123 µM | TGI (HT29 colon): 0.526 µM | TGI (HCT-116 colon): > 36.1 µM | GI50 (EKVX NSCLC): 0.545 µM | TGI (EKVX NSCLC): > 100 µM | GI50 (HS 578T breast): 4.12 µM | TGI (HS 578T breast): > 100 µM | TGI (DU-145 prostate): 3.1 µM

C=CCN(C(=O)OC(C)(C)C)C1=CC2C(C)=CN(S(=O)(=O)c3ccccc3)C2C(OCc2ccccc2)=C1 (stereo unspecified)
TGI (MDA-N): > 100 µM | TGI (A549 NSCLC): > 100 µM | TGI (CCRF-CEM leukemia): > 100 µM | TGI (SW-620 colon): > 100 µM | TGI (PC-3 prostate): > 100 µM | TGI (NCI/ADR-RES ovarian): > 100 µM | TGI (MCF7 breast): > 100 µM | TGI (MDA-MB-231 breast): > 100 µM | TGI (BT-549 breast): > 100 µM | TGI (SF-295 CNS): > 100 µM | TGI (IGROV1 ovarian): > 100 µM | TGI (OVCAR-4 ovarian): > 100 µM | TGI (LOX IMVI melanoma): > 100 µM | TGI (RXF 393 renal): > 100 µM | TGI (HL-60(TB) leukemia): > 100 µM | TGI (SN12C renal): > 100 µM | TGI (MALME-3M melanoma): > 100 µM | TGI (M14 melanoma): > 100 µM | TGI (OVCAR-3 ovarian): > 100 µM | TGI (NCI-H23 lung): > 100 µM | TGI (HOP-62 NSCLC): > 100 µM | TGI (SNB-75 CNS): > 100 µM | TGI (NCI-H522 lung): > 100 µM | TGI (TK-10 renal): > 100 µM | TGI (MOLT-4 leukemia): > 100 µM | TGI (NCI-H226 lung): > 100 µM | TGI (K-562 leukemia): > 100 µM | TGI (HCT-15 colon): > 100 µM | TGI (UO-31 renal): > 100 µM | TGI (KM12 colon): > 100 µM | TGI (COLO 205 colon): > 100 µM | TGI (SK-OV-3 ovarian): > 100 µM | TGI (U251 CNS): > 100 µM | TGI (RPMI-8226 leukemia): > 100 µM | TGI (UACC-257 melanoma): > 100 µM | TGI (OVCAR-5 ovarian): > 100 µM | TGI (NCI-H460 lung): > 100 µM | TGI (SK-MEL-5 melanoma): > 100 µM | TGI (CAKI-1 renal): > 100 µM | TGI (MDA-MB-435): > 100 µM | TGI (SK-MEL-28 melanoma): > 100 µM | TGI (HCC-2998 colon): > 100 µM | TGI (SK-MEL-2 melanoma): > 100 µM | TGI (UACC-62 melanoma): > 100 µM | TGI (ACHN renal): > 100 µM | TGI (HT29 colon): > 100 µM | TGI (HCT-116 colon): > 100 µM | TGI (EKVX NSCLC): > 100 µM | TGI (OVCAR-8 ovarian): > 100 µM | TGI (786-0 renal): > 100 µM | TGI (HS 578T breast): > 100 µM | TGI (DU-145 prostate): > 100 µM
